The kinase profiling compilation of Christmann-Franck et al. (2016)

What was measured:
Conditions in all cases: compound 10.0 µM
AAK1 (human) = AAK1 (human) (UniProt Q2M2I8)
BMX (human) = BMX (human) (UniProt P51813)
CAMK1G (human) = CAMK1G (human) (UniProt Q96NX5)
CAMK2A (human) = CAMK2A (human) (UniProt Q9UQM7)
CDK17 (human) = CDK17 (human) (UniProt Q00537)
CRK2 (P.falciparum) = CRK2 (P.falciparum) (UniProt P61075)
[1] = test system: EIF2AK4 KD2 (human), Q9P2K8 [S808G]
ERBB3 (human) = ERBB3 (human) (UniProt P21860)
FER (human) = FER (human) (UniProt P16591)
[2] = test system: FLT3 (human), P36888 [ITD]
[3] = test system: FLT3 (human), P36888 [N841I]
LYN (human) = LYN (human) (UniProt P07948)
MAP3K11 (human) = MAP3K11 (human) (UniProt Q16584)
MAP3K2 (human) = MAP3K2 (human) (UniProt Q9Y2U5)
MAPK13 (human) = MAPK13 (human) (UniProt O15264)
Sequence of MAPK13 (human) (O15264 whole entry, looked up): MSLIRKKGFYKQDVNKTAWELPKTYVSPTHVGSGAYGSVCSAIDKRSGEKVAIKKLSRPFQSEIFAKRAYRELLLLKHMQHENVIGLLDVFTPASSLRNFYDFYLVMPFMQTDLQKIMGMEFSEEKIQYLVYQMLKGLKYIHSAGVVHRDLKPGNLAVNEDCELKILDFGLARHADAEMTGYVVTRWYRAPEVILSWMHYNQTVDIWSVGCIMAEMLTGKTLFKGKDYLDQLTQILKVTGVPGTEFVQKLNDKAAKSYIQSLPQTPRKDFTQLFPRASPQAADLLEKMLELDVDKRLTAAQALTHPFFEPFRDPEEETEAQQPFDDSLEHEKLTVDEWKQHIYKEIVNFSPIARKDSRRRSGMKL

MAPKAPK5 (human) = MAPKAPK5 (human) (UniProt Q8IW41)
MLTK (human) = MLTK (human) (UniProt Q9NYL2)
MST1R (human) = MST1R (human) (UniProt Q04912)
MTOR (human) = MTOR (human) (UniProt P42345)
MUSK (human) = MUSK (human) (UniProt O15146)
MYO3A (human) = MYO3A (human) (UniProt Q8NEV4)
NEK4 (human) = NEK4 (human) (UniProt P51957)
PAK1 (human) = PAK1 (human) (UniProt Q13153)
PDPK1 (human) = PDPK1 (human) (UniProt O15530)
PIK3CB (human) = PIK3CB (human) (UniProt P42338)
PKN1 (human) = PKN1 (human) (UniProt Q16512)
Sequence of PKN1 (human) (Q16512 whole entry, looked up): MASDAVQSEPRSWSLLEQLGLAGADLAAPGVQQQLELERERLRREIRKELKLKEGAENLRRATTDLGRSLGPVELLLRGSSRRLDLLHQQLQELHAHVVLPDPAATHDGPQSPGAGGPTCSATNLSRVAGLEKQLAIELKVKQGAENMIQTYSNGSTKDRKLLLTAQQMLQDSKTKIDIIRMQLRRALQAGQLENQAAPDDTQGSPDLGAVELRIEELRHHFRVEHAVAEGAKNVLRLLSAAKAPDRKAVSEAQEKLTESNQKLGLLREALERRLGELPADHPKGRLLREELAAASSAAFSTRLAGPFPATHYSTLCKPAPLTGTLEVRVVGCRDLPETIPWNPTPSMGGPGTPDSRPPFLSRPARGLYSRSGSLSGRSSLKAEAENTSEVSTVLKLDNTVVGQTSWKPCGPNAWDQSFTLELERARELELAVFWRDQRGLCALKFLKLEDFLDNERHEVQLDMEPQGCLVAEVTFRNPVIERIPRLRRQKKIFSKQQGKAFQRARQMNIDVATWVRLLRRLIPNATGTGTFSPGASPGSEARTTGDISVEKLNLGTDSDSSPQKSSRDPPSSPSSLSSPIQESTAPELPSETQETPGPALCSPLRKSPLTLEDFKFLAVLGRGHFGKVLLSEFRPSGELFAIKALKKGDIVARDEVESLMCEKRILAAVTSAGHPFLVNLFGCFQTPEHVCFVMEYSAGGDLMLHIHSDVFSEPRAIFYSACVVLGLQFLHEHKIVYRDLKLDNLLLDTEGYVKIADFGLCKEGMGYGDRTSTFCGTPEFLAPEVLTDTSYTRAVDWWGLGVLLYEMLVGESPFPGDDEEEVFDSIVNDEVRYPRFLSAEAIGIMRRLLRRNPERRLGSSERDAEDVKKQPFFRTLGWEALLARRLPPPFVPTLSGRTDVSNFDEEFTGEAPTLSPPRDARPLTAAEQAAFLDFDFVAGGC

PLK2 (human) = PLK2 (human) (UniProt Q9NYY3)
Sequence of PLK2 (human) (Q9NYY3 whole entry, looked up): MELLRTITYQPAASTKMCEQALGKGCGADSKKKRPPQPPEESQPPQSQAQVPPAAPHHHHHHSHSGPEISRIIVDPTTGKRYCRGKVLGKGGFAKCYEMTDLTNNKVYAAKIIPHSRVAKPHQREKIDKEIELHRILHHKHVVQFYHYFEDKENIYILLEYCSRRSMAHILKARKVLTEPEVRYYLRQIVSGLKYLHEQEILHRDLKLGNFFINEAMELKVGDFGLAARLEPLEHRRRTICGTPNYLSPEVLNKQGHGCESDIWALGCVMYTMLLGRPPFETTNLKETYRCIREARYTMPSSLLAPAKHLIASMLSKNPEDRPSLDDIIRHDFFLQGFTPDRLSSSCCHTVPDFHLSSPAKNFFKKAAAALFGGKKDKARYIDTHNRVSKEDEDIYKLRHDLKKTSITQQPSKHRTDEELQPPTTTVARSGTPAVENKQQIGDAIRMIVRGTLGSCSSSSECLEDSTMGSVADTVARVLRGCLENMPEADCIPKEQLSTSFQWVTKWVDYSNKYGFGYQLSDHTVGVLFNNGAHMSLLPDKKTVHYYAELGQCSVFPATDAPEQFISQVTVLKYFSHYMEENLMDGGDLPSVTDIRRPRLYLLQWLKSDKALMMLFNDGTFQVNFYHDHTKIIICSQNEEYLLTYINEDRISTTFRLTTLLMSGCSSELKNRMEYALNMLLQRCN

PLK3 (human) = PLK3 (human) (UniProt Q9H4B4)
Sequence of PLK3 (human) (Q9H4B4 whole entry, looked up): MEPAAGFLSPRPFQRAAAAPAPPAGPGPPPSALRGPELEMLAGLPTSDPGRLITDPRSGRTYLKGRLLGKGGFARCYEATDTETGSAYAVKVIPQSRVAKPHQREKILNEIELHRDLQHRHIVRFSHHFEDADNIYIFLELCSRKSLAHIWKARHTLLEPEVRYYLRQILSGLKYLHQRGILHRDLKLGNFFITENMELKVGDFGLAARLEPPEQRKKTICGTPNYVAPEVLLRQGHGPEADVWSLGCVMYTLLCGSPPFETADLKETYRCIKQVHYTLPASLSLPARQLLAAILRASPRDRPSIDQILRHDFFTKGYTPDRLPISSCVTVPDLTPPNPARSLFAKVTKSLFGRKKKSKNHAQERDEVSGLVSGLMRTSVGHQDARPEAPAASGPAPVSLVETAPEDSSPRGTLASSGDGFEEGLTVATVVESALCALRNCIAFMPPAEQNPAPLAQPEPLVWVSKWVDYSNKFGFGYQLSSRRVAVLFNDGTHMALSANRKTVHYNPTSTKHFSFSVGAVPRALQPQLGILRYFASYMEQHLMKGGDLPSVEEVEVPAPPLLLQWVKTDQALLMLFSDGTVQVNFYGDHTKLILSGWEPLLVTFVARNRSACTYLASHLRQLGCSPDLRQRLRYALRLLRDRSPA

PRKCQ (human) = PRKCQ (human) (UniProt Q04759)
PTK2 (human) = PTK2 (human) (UniProt Q05397)
RAF1 (human) = RAF1 (human) (UniProt P04049)
Sequence of RAF1 (human) (P04049 whole entry, looked up): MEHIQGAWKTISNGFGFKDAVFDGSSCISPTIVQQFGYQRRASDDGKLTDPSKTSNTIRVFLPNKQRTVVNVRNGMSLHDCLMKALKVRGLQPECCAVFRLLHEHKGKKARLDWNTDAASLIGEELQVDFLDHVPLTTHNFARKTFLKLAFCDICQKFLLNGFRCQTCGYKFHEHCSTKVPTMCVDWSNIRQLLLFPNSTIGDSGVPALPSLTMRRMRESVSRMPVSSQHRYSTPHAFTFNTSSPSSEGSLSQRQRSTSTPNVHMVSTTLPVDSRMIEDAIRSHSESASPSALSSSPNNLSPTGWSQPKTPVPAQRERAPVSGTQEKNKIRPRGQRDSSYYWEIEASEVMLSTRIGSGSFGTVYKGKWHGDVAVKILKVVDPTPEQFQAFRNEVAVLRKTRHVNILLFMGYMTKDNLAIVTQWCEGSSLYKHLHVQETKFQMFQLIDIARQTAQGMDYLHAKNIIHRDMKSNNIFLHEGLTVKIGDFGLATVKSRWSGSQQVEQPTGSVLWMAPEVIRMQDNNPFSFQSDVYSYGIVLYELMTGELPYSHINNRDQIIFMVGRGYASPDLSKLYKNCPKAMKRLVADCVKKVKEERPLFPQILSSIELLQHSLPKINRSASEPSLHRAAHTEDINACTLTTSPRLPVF

ROCK2 (human) = ROCK2 (human) (UniProt O75116)
SIK1 (human) = SIK1 (human) (UniProt P57059)
SRPK1 (human) = SRPK1 (human) (UniProt Q96SB4)
STK11 (human) = STK11 (human) (UniProt Q15831)
Sequence of STK11 (human) (Q15831 whole entry, looked up): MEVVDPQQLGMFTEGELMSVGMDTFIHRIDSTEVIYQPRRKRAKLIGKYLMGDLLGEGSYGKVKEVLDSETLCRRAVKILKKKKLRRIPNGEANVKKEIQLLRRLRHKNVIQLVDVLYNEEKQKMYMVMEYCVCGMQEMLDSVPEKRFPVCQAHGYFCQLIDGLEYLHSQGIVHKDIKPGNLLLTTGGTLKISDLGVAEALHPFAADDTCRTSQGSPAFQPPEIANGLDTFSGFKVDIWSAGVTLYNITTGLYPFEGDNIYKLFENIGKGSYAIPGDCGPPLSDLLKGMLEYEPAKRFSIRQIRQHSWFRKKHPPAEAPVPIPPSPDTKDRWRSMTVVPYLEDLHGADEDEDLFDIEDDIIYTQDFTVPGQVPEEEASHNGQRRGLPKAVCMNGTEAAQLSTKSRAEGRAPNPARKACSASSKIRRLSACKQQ

STK16 (human) = STK16 (human) (UniProt O75716)
Sequence of STK16 (human) (O75716 whole entry, looked up): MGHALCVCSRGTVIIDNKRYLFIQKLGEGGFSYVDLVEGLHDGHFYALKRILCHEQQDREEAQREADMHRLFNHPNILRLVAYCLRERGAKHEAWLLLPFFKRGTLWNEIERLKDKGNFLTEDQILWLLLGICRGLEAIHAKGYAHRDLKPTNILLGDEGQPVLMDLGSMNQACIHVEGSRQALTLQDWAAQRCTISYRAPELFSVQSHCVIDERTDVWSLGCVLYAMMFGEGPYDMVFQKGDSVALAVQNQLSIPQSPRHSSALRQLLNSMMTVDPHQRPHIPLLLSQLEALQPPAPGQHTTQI

STK32B (human) = STK32B (human) (UniProt Q9NY57)
STK36 (human) = STK36 (human) (UniProt Q9NRP7)
TBK1 (human) = TBK1 (human) (UniProt Q9UHD2)
TEC (human) = TEC (human) (UniProt P42680)
TGFBR1 (human) = TGFBR1 (human) (UniProt P36897)
YSK4 (human) = YSK4 (human) (UniProt Q56UN5)

Sequence of CAMK1G (human) (Q96NX5 whole entry, looked up): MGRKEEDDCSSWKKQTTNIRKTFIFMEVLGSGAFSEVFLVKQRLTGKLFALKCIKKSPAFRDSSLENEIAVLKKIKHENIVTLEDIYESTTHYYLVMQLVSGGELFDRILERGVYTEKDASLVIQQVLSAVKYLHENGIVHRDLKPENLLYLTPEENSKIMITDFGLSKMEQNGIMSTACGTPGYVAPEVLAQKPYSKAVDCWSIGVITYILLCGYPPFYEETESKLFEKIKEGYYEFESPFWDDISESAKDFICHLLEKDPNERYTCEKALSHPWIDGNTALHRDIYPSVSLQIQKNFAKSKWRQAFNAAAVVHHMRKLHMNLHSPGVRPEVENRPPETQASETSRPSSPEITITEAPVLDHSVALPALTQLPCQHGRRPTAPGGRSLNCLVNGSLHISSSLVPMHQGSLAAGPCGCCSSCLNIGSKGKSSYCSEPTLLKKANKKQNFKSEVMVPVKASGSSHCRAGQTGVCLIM
Sequence of CAMK2A (human) (Q9UQM7 whole entry, looked up): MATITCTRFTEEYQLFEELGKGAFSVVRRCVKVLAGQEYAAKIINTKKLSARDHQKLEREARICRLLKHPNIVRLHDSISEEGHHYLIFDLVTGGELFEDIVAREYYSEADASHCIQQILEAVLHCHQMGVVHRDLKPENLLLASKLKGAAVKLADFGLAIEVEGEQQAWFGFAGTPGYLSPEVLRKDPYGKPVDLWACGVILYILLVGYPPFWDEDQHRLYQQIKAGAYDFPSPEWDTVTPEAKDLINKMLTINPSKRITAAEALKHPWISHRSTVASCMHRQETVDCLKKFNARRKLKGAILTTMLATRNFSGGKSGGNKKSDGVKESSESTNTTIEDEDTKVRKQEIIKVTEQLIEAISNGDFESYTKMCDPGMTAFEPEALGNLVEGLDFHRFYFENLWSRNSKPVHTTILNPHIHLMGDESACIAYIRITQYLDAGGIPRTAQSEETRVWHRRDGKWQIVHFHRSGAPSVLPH

## CNC(=O)c1cc(Oc2ccc(NC(=O)Nc3ccc(Cl)c(C(F)(F)F)c3)cc2)ccn1
AAK1 (human)
  per cent of control: 100%
BMX (human)
  per cent of control: 94%
CAMK1G (human)
  per cent of control: 87%
CAMK2A (human)
  per cent of control: 93%
CDK17 (human)
  per cent of control: 13%
CRK2 (P.falciparum)
  per cent of control: 59%
[1]
  per cent of control: 60%
ERBB3 (human)
  per cent of control: 70%
FER (human)
  per cent of control: 77%
[2]
  per cent of control: 0.5%
[3]
  per cent of control: 0%
LYN (human)
  per cent of control: 11%
MAP3K11 (human)
  per cent of control: 74%
MAP3K2 (human)
  per cent of control: 100%
MAPK13 (human)
  per cent of control: 21%
MAPKAPK5 (human)
  per cent of control: 100%
MLTK (human)
  per cent of control: 0.6%
MST1R (human)
  per cent of control: 76%
MTOR (human)
  per cent of control: 100%
MUSK (human)
  per cent of control: 0%
MYO3A (human)
  per cent of control: 44%
NEK4 (human)
  per cent of control: 100%
PAK1 (human)
  per cent of control: 100%
PDPK1 (human)
  per cent of control: 94%
PIK3CB (human)
  per cent of control: 100%
PKN1 (human)
  per cent of control: 100%
PLK2 (human)
  per cent of control: 100%
PLK3 (human)
  per cent of control: 100%
PRKCQ (human)
  per cent of control: 76%
PTK2 (human)
  per cent of control: 100%
RAF1 (human)
  per cent of control: 0.7%
ROCK2 (human)
  per cent of control: 90%
SIK1 (human)
  per cent of control: 79%
SRPK1 (human)
  per cent of control: 100%
STK11 (human)
  per cent of control: 98%
STK16 (human)
  per cent of control: 94%
STK32B (human)
  per cent of control: 100%
STK36 (human)
  per cent of control: 16%
TBK1 (human)
  per cent of control: 100%
TEC (human)
  per cent of control: 100%
TGFBR1 (human)
  per cent of control: 100%
YSK4 (human)
  per cent of control: 0%

## CNC(=O)c1cc(Oc2ccc(NC(=O)Nc3ccc(Cl)c(C(F)(F)F)c3)cc2)cc[n+]1[O-]
AAK1 (human)
  per cent of control: 100%
BMX (human)
  per cent of control: 67%
CAMK1G (human)
  per cent of control: 76%
CAMK2A (human)
  per cent of control: 96%
CDK17 (human)
  per cent of control: 7.7%
CRK2 (P.falciparum)
  per cent of control: 100%
[1]
  per cent of control: 70%
ERBB3 (human)
  per cent of control: 62%
FER (human)
  per cent of control: 64%
[2]
  per cent of control: 0.4%
[3]
  per cent of control: 0%
LYN (human)
  per cent of control: 11%
MAP3K11 (human)
  per cent of control: 89%
MAP3K2 (human)
  per cent of control: 100%
MAPK13 (human)
  per cent of control: 0.55%
MAPKAPK5 (human)
  per cent of control: 100%
MLTK (human)
  per cent of control: 0.85%
MST1R (human)
  per cent of control: 30%
MTOR (human)
  per cent of control: 100%
MUSK (human)
  per cent of control: 0.2%
MYO3A (human)
  per cent of control: 14%
NEK4 (human)
  per cent of control: 93%
PAK1 (human)
  per cent of control: 100%
PDPK1 (human)
  per cent of control: 94%
PIK3CB (human)
  per cent of control: 93%
PKN1 (human)
  per cent of control: 97%
PLK2 (human)
  per cent of control: 77%
PLK3 (human)
  per cent of control: 100%
PRKCQ (human)
  per cent of control: 80%
PTK2 (human)
  per cent of control: 97%
RAF1 (human)
  per cent of control: 0.45%
ROCK2 (human)
  per cent of control: 82%
SIK1 (human)
  per cent of control: 66%
SRPK1 (human)
  per cent of control: 100%
STK11 (human)
  per cent of control: 100%
STK16 (human)
  per cent of control: 81%
STK32B (human)
  per cent of control: 100%
STK36 (human)
  per cent of control: 26%
TBK1 (human)
  per cent of control: 100%
TEC (human)
  per cent of control: 68%
TGFBR1 (human)
  per cent of control: 100%
YSK4 (human)
  per cent of control: 0.1%
